The term melting point denotes the temperature of the solid-liquid transition.

`Fc1cccc(CCNC2=NCCS2)c1` had a melting point of 74 to 76 °C.
In the case of `O=S1(=O)CCC(I)CC1` it was 124 to 126 °C; in that of `CC(C)n1cnnc1-c1ccccc1N`, 97 to 99 °C.
In the case of `COc1ccccc1C(C)(C)C(=O)O` it was 121 to 123 °C; in that of `Cc1ccc(-n2ccnc2)c(C(=O)O)c1`, 259 to 261 °C; in that of `O=C(O)Cc1csc(NC(=O)c2ccc(Br)o2)n1`, 214 to 216 °C.
In the case of `COC(=O)c1ccc(Oc2ccc(Cl)cc2N)cc1`, the melting point fell in the range of 83 to 85 °C.
In the case of `CC(Cl)C(=O)Nc1ccccc1Br` (stereo not drawn) it was 75 to 77 °C; in that of `Cc1nn(C)c2ncc(S(=O)(=O)Cl)cc12`, 134 to 136 °C.
In the case of `COc1cccc(NCCC#N)c1` it was 81 to 83 °C; in that of `CCCc1nnn[nH]1`, 63 to 65 °C.
In the case of `Nc1ccc(NC(=O)c2ccoc2)cc1C(F)(F)F` it was 121 to 123 °C; in that of `NC(=O)c1ccc(CNc2cccc(F)c2)cc1`, 155 to 157 °C; in that of `O=C(O)c1csc(COc2ccc(Cl)cc2)n1`, 217 to 219 °C.
For the compound `O=C(O)C1CC1c1c(F)cccc1Cl` (stereo not drawn), the melting point lay within 109 to 111 °C.
In the case of `O=C(O)C1CC(c2ccc(Cl)cc2Cl)=NO1` (stereo not drawn) it was 115 to 117 °C; in that of `COc1ccc(NC(=O)C(=O)O)cc1`, 206 to 208 °C; in that of `COc1ccc(SC)c(OC)c1C(=O)O`, 117 to 119 °C.
In the case of `CC(C)(C)c1ccc(S(=O)(=O)CCN)cc1` it was 46 to 48 °C; in that of `NC(C(=O)O)c1ccc(Cl)cc1` (stereo not drawn), 219 to 221 °C; in that of `NC(=O)CCOc1cccc(F)c1`, 94 to 96 °C.
`COCCOc1ccc(CC#N)cc1` returned a melting point of 49 to 51 °C.
Regarding `O=C(O)C1CCCN1C(=O)c1ccc([N+](=O)[O-])s1` (stereo not drawn), the melting point lay within 161 to 163 °C.
In the case of `CCOC(=O)C1CN(C(=O)OC(C)(C)C)CCN1` (stereo not drawn) it was 55 to 57 °C; in that of `CCOc1ccc(S(N)(=O)=O)cc1OCC`, 152 to 154 °C.
In the case of `O=C(CCl)Nc1cccc(C(=O)O)c1` it was 220 to 222 °C.
In the case of `Nc1cc2c(nn1)CCNC2` it was 219 to 221 °C.
In turn, `N#Cc1ccc(S(=O)(=O)N2CCCC2)cc1` displayed a melting point of 103 to 105 °C.
In the case of `Cc1c(N)cccc1-c1nc2cc(F)ccc2n1C1CC1` it was 131 to 133 °C; in that of `Cc1nnc(-c2ccccc2N)o1`, 145 to 147 °C; in that of `CC(=O)c1nc2ccc(Cl)cc2[nH]1`, 173 to 175 °C.
In the case of `N#CC1(c2cccc(Br)c2)CCOCC1` it was 90 to 92 °C.
Take `Cc1c(C=O)c2ccccn2c1C=O`: the melting point was in the range of 214 to 216 °C.
In the case of `Cc1nc(Cl)c2c(n1)CCCC2` it was 30 to 32 °C.
`OCc1cccc2nccn12` registered a melting point of 154 to 156 °C.
On to `COCCOc1ccc(C(C)=O)cc1`, for which the melting point lay within 38 to 40 °C.
`O=C(O)Cn1ncn2nccc2c1=O` gave a melting point of 213 to 215 °C.
In the case of `CC(=O)c1ccc2c(c1)CC(=O)N2` it was 217 to 219 °C; in that of `CC(C)(C)CNC(=O)c1ccc(C(=O)O)cn1`, 239 to 241 °C; in that of `O=C(O)C1CCCN(C(=O)c2ccncc2)C1` (stereo not drawn), 258 to 260 °C.
In the case of `NC(=O)CN1CC(C(=O)O)CC1=O` (stereo not drawn) it was 169 to 171 °C; in that of `NC(=S)Cc1ccccc1F`, 92 to 94 °C; in that of `Cc1nc(O)c2cc(Br)ccc2n1`, 219 to 221 °C.
In the case of `O=C(O)Cc1cccc(OCc2ccc(Cl)cc2)c1` it was 126 to 128 °C.
`O=C(O)c1ccc(S(=O)(=O)NCc2ccco2)cc1` showed a melting point of 229 to 231 °C.
In the case of `NC(=S)Nc1ccc2c(c1)OCCO2` it was 211 to 213 °C.
Turning to `CCOC(=O)Nc1ccc2c(CCl)cc(=O)oc2c1`, the melting point lay in the range of 247 to 249 °C.
In the case of `Fc1cccc(Cn2cc(Br)cn2)c1F` it was 53 to 55 °C.
In the case of `Clc1nc(Cl)c2cn[nH]c2n1` it was 127 to 129 °C.
In turn, `CCOC(=O)Cn1[nH]cc(C(=O)OCC)c1=N` returned a melting point of 72 to 74 °C.
Compound `O=C(O)CSc1nccn1-c1ccc(Br)cc1` had a melting point of 203 to 205 °C.
In the case of `Nc1nc(-c2cccs2)c(-c2cccs2)s1` it was 139 to 141 °C; in that of `COC(=O)C(=O)CC(=O)c1ccc(Br)cc1`, 104 to 106 °C; in that of `COc1ccc(NC(C)=O)cc1N`, 106 to 108 °C.
In turn, `c1ccc2cc(C3CO3)ccc2c1` (stereo not drawn) yielded a melting point of 57 to 59 °C.
In the case of `Nc1n[nH]c2ccccc12` it was 152 to 154 °C; in that of `CN(C)C(=O)c1cc(F)c(NN)c(F)c1`, 74 to 76 °C; in that of `COc1cc(C)nc(NN)n1`, 116 to 118 °C.
In the case of `Cc1oncc1C(=O)Nc1ccc(O)c(C(=O)O)c1` it was 249 to 251 °C; in that of `c1ccc(CNc2nc3ccccc3[nH]2)cc1`, 147 to 149 °C.
For the compound `CC(C)(C)OC(=O)N1CCCCC1C#N` (stereo not drawn), the melting point was in the range of 62 to 66 °C.
In the case of `NC(=O)NC1CCCC1` it was 192 to 194 °C.
Consider `Sc1nnc(NCCc2ccccc2)s1`, for which the melting point fell in the range of 143 to 145 °C.
Compound `O=C(O)c1csc(-c2ccccc2)n1` came in with a melting point of 160 to 161 °C.
In the case of `COC(=O)c1c(C)cccc1S(=O)(=O)Cl` it was 53 to 55 °C; in that of `CCOC(=O)c1ccc(N2CC(N)C2)nc1`, 72 to 74 °C; in that of `NC1CCN(c2ccccc2Cl)C1=O` (stereo not drawn), 70 to 72 °C.
In the case of `Nc1ccccc1-c1[nH]nc2c1CCC2`, the melting point lay within 128 to 130 °C.
In the case of `O=C(NCC1CCCCN1)c1ccccc1` (stereo not drawn) it was 109 to 111 °C; in that of `O=C(O)c1cc(S(=O)(=O)N2CCOCC2)ccc1I`, 183 to 185 °C; in that of `CC(=O)c1sc(N)nc1-c1ccccc1`, 145 to 147 °C.
In the case of `CCc1ccc(C(=O)O)cc1S(=O)(=O)N1CCOCC1` it was 159 to 161 °C; in that of `CNCc1ccc(N)nc1`, 84 to 86 °C.
In the case of `COc1cc(F)c(F)cc1[N+](=O)[O-]` it was 54 to 56 °C.
In the case of `Nc1ccc(OCC2CCCCC2)cc1`, the melting point lay in the range of 53 to 55 °C.
In the case of `N#Cc1cccc(NN)c1` it was 104 to 106 °C; in that of `CC(c1ccc(F)cc1F)S(N)(=O)=O` (stereo not drawn), 93 to 95 °C; in that of `Cc1cc(CCC(=O)O)ccc1Br`, 89 to 91 °C.
In the case of `CC(C)S(=O)(=O)NCC1CCCNC1` (stereo not drawn) it was 156 to 158 °C; in that of `Cc1sc(N)nc1-c1ccc(F)c(F)c1`, 135 to 137 °C.
In turn, `CC(C)(C)OC(=O)N1CCN(CC#N)CC1` yielded a melting point of 79 to 81 °C.
As to `COc1cccc(CNC(=O)CCl)c1`, the melting point fell in the range of 100 to 104 °C.
On to `CC(=O)Cn1cnc(C)c1C`, for which the melting point lay in the range of 80 to 82 °C.
In the case of `CS(=O)(=O)N1CCNC(=O)C1` it was 164 to 166 °C; in that of `CCn1c2ccccc2c2cc(/C=C/C(=O)O)ccc21`, 243 to 245 °C; in that of `Cc1cccc(NC(=O)C(Br)C(C)C)c1C` (stereo not drawn), 150 to 152 °C.
Consider `O=C(O)C1Cc2ccccc2CN1C(=O)c1ccccc1` (stereo not drawn), for which the melting point lay within 141 to 143 °C.
In the case of `Cn1cc(C=O)c(-c2ccc(C#N)cc2)n1`, the melting point was in the range of 156 to 158 °C.

These data come from a melting point compilation (Tetko et al.).
